Laboratory results published in patent US9163021B2, “Pyrrolo[3,2-c]pyridine tropomyosin-related kinase inhibitors” (Pfizer Limited, priority 2012, dated 2015).
pIC50: −log10 of the molar value.

Each compound was assayed against TRKA (Homo sapiens (Human), UniProt P04629) (assay: Isolated TRK enzyme assay (HTRF KinEASE-TK), PV3144 TrkA enzyme assay). Conditions: arithmetic mean where more than one reading.
Assay type: biochemical
Method in brief: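 His-tagged TrkA cytoplasmic domain preactivated with ATP 20 min, then with compound 20 min at room temperature before 1 µM final biotin-TK substrate; HTRF 665/620 nm read.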

TRKA, sequence (P04629 441-796): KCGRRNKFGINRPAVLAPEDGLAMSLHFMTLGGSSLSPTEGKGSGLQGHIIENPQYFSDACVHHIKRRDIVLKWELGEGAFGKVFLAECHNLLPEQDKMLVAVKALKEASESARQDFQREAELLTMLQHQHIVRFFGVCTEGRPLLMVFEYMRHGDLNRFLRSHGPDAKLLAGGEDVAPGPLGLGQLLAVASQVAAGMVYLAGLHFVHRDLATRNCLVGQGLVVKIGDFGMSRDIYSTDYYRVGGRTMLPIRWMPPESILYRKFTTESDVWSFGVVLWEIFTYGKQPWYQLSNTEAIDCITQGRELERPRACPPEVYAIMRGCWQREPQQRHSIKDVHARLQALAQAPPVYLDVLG

Compound | pIC50
CC(C)n1cc(C(=O)c2cncc(NC(=O)Cc3ccc(F)cn3)c2)c2cncc(F)c21 [Example 88, N-(5-{[7-fluoro-1-(propan-2-yl)-1H-pyrrolo[3,2-c]pyridin-3-yl]carbonyl}pyridin-3-yl)-2-(5-fluoropyridin-2-yl)acetamide] | 7.16
CC(C)n1cc(C(=O)c2cc(NC(=O)Cn3ccc(C4CC4)n3)ccn2)c2cnccc21 [Example 29, 2-(3-cyclopropyl-1H-pyrazol-1-yl)-N-(2-{[1-(propan-2-yl)-1H-pyrrolo[3,2-c]pyridin-3-yl]carbonyl}pyridin-4-yl)acetamide] | 6.97
Cc1nc(CC(=O)Nc2cc(C(=O)c3cn(C(C)C)c4ccncc34)ccn2)c(C)o1 [Example 179, 2-(2,5-dimethyl-1,3-oxazol-4-yl)-N-(4-{[1-(propan-2-yl)-1H-pyrrolo[3,2-c]pyridin-3-yl]carbonyl}pyridin-2-yl)acetamide] | 6.79
CC(C)(CO)n1cc(C(=O)c2cc(NC(=O)Cc3ccc(C#N)cc3)ccn2)c2cnccc21 [Example 9, 2-(4-cyanophenyl)-N-(2-{[1-(1-hydroxy-2-methylpropan-2-yl)-1H-pyrrolo[3,2-c]pyridin-3-yl]carbonyl}pyridin-4-yl)acetamide] | 7.01
O=C(Cc1ccccc1OC(F)(F)F)Nc1cc(C(=O)c2cn(CCO)c3ccncc23)ccn1 [Example 143, N-(4-{[1-(2-hydroxyethyl)-1H-pyrrolo[3,2-c]pyridin-3-yl]carbonyl}pyridin-2-yl)-2-[2-(trifluoromethoxy)phenyl]acetamide] | 6.01
COCc1nc(CC(=O)Nc2cc(C(=O)c3cn(C(C)C)c4ccncc34)ccn2)c(C2CC2)o1 [Example 80, 2-[5-cyclopropyl-2-(methoxymethyl)-1,3-oxazol-4-yl]-N-(4-{[1-(propan-2-yl)-1H-pyrrolo[3,2-c]pyridin-3-yl]carbonyl}pyridin-2-yl)acetamide] | 6.45
CC(CO)n1cc(C(=O)c2cncc(NC(=O)Cn3cc(C4CC4)nn3)c2)c2cnccc21 (single isomer, unassigned) [Example 61, 2-(4-cyclopropyl-1H-1,2,3-triazol-1-yl)-N-(5-{[1-(1-hydroxypropan-2-yl)-1H-pyrrolo[3,2-c]pyridin-3-yl]carbonyl}pyridin-3-yl)acetamide] | 7.18
CC(C)n1cc(C(=O)c2cc(NC(=O)Cc3ccc(Cl)cn3)ccn2)c2cnccc21 [Example 55, 2-(5-chloropyridin-2-yl)-N-(2-{[1-(propan-2-yl)-1H-pyrrolo[3,2-c]pyridin-3-yl]carbonyl}pyridin-4-yl)acetamide] | 7.13
CC(C)n1cc(C(=O)c2cncc(NC(=O)Cc3cccc(CC(C)(C)O)c3)c2)c2cnccc21 [Example 117, 2-(3-(2-hydroxy-2-methylpropyl)phenyl]-N-(5-{[1-(propan-2-yl)-1H-pyrrolo[3,2-c]pyridin-3-yl]carbonyl}pyridin-3-yl)acetamide] | 7.41
Cc1cn(CC(=O)Nc2cncc(C(=O)c3cn(C(C)C)c4ccncc34)c2)nn1 [Example 132, 2-(4-methyl-1H-1,2,3-triazol-1-yl)-N-(5-{[1-(propan-2-yl)-1H-pyrrolo[3,2-c]pyridin-3-yl]carbonyl}pyridin-3-yl)acetamide] | 6.30
CC(CO)n1cc(C(=O)c2cncc(NC(=O)Cn3cc(C(F)(F)F)nn3)c2)c2cnccc21 (single isomer, unassigned) [Example 59, N-(5-{[1-(1-hydroxypropan-2-yl)-1H-pyrrolo[3,2-c]pyridin-3-yl]carbonyl}pyridin-3-yl)-2-[4-(trifluoromethyl)-1H-1,2,3-triazol-1-yl]acetamide] | 7.19
CC(CO)n1cc(C(=O)c2cncc(NC(=O)Cn3cc(C4CC4)nn3)c2)c2cnccc21 (single isomer, unassigned) [Example 76, 2-(4-cyclopropyl-1H-1,2,3-triazol-1-yl)-N-(5-{[1-(1-hydroxypropan-2-yl)-1H-pyrrolo[3,2-c]pyridin-3-yl]carbonyl}pyridin-3-yl)acetamide] | 6.92
CC(C)n1cc(C(=O)c2ccnc(NC(=O)Cc3ccon3)c2)c2cnccc21 [Example 180, 2-(1,2-oxazol-3-yl)-N-(4-{[1-(propan-2-yl)-1H-pyrrolo[3,2-c]pyridin-3-yl]carbonyl}pyridin-2-yl)acetamide] | 5.97
CC(CO)n1cc(C(=O)c2cncc(NC(=O)Cn3cc(C4CC4)nn3)c2)c2cncc(F)c21 (single isomer, unassigned) [Example 207, 2-(4-cyclopropyl-1H-1,2,3-triazol-1-yl)-N-(5-{[7-fluoro-1-(1-hydroxypropan-2-yl)-1H-pyrrolo[3,2-c]pyridin-3-yl]carbonyl}pyridin-3-yl)acetamide] | 6.75
CC(C)n1cc(C(=O)c2ccnc(NC(=O)Cc3nnn[nH]3)c2)c2cnccc21 [Example 187] | 5.01
CC(C)c1cn(CC(=O)Nc2cncc(C(=O)c3cn(C(C)CO)c4ccncc34)c2)nn1 (single isomer, unassigned) [Example 62, N-(5-{[1-(1-hydroxypropan-2-yl)-1H-pyrrolo[3,2-c]pyridin-3-yl]carbonyl}pyridin-3-yl)-2-[4-(propan-2-yl)-1H-1,2,3-triazol-1-yl]acetamide] | 7.27
CC(CO)n1cc(C(=O)c2cncc(NC(=O)Cn3ccc(C(F)(F)F)n3)c2)c2cncc(F)c21 (single isomer, unassigned) [Example 210, N-(5-{[7-fluoro-1-(1-hydroxypropan-2-yl)-1H-pyrrolo[3,2-c]pyridin-3-yl]carbonyl}pyridin-3-yl)-2-[3-(trifluoromethyl)-1H-pyrazol-1-yl]acetamide] | 7.34
CC(C)n1cc(C(=O)c2cncc(NC(=O)Cc3ccccc3)c2)c2cnccc21 [Example 130, 2-phenyl-N-(5-{[1-(propan-2-yl)-1H-pyrrolo[3,2-c]pyridin-3-yl]carbonyl}pyridin-3-yl)acetamide] | 6.79
CC(C)n1cc(C(=O)c2cncc(NC(=O)Cc3coc(C4CC4)n3)c2)c2cnccc21 [Example 43, 2-(2-cyclopropyl-1,3-oxazol-4-yl)-N-(5-{[1-(propan-2-yl)-1H-pyrrolo[3,2-c]pyridin-3-yl]carbonyl}pyridin-3-yl)acetamide] | 6.93
Cc1n[nH]c(CC(=O)Nc2cc(C(=O)c3cn(C(C)C)c4ccncc34)ccn2)n1 [Example 184, 2-(3-methyl-1H-1,2,4-triazol-5-yl)-N-(4-{[1-(propan-2-yl)-1H-pyrrolo[3,2-c]pyridin-3-yl]carbonyl}pyridin-2-yl)acetamide] | 5.50
N-(5-{[7-fluoro-1-(1-hydroxypropan-2-yl)-1H-pyrrolo[3,2-c]pyridin-3-yl]carbonyl}pyridin-3-yl)-2-[4-(trifluoromethyl)phenyl]acetamide [Example 209] | 6.58
CC(CO)n1cc(C(=O)c2cncc(NC(=O)Cc3ccc(F)cn3)c2)c2cncc(F)c21 (single isomer, unassigned) [Example 212, N-(5-{[7-fluoro-1-(1-hydroxypropan-2-yl)-1H-pyrrolo[3,2-c]pyridin-3-yl]carbonyl}pyridin-3-yl)-2-(5-fluoropyridin-2-yl)acetamide] | 6.32

Compounds with a higher pIC50, results first:

pIC50 | Compound
7.86 | O=C(Cc1cccc(OC(F)(F)F)c1)Nc1cc(C(=O)c2cn(C3COC3)c3ccncc23)ccn1 [Example 194, N-(4-{[1-(oxetan-3-yl)-1H-pyrrolo[3,2-c]pyridin-3-yl]carbonyl}pyridin-2-yl)-2-[3-(trifluoromethoxy)phenyl]acetamide]
7.95 | CC(C)n1cc(C(=O)c2cncc(NC(=O)Cc3ccc(Cl)cc3)c2)c2cnccc21 [Example 116, 2-(4-chlorophenyl)-N-(5-{[1-(propan-2-yl)-1H-pyrrolo[3,2-c]pyridin-3-yl]carbonyl}pyridin-3-yl)acetamide]
8.41 | CC(C)n1cc(C(=O)c2ccnc(NC(=O)c3cccc(OC(F)(F)F)c3)c2)c2cnccc21 [Example 173, N-(4-{[1-(propan-2-yl)-1H-pyrrolo[3,2-c]pyridin-3-yl]carbonyl}pyridin-2-yl)-3-(trifluoromethoxy)-benzamide]
8.25 | CC(C)(CO)n1cc(C(=O)c2cncc(NC(=O)Cn3ccc(C4CC4)n3)c2)c2cncc(F)c21 [Example 2, 2-(3-Cyclopropyl-pyrazol-1-yl)-N-{5-[7-fluoro-1-(2-hydroxy-1,1-dimethyl-ethyl)-1H-pyrrolo[3,2-c]pyridine-3-carbonyl]-pyridin-3-yl}-acetamide]
7.65 | O=C(Cc1ccc(Cl)c(Cl)c1)Nc1cc(C(=O)c2cn(CCO)c3ccncc23)ccn1 [Example 144, 2-(3,4-dichlorophenyl)-N-(4-{[1-(2-hydroxyethyl)-1H-pyrrolo[3,2-c]pyridin-3-yl]carbonyl}pyridin-2-yl)]
7.51 | CC(C)n1cc(C(=O)c2ccnc(NC(=O)Cc3cccc(CC(C)(C)O)c3)c2)c2cnccc21 [Example 97, 2-[3-(2-hydroxy-2-methylpropyl)phenyl]-N-(4-{[1-(propan-2-yl)-1H-pyrrolo[3,2-c]pyridin-3-yl]carbonyl}pyridin-2-yl)acetamide]
7.75 | CC(C)n1cc(C(=O)c2ccnc(NC(=O)Cc3ccc(C#N)cc3)c2)c2cnccc21 [Example 183, 2-(4-cyanophenyl)-N-(4-{[1-(propan-2-yl)-1H-pyrrolo[3,2-c]pyridin-3-yl]carbonyl}pyridin-2-yl)acetamide]
8.51 | CC(C)(CO)n1cc(C(=O)c2cncc(NC(=O)Cc3ccc(C(F)(F)F)cc3)c2)c2cnccc21 [Example 33, N-(5-{[1-(1-hydroxy-2-methylpropan-2-yl)-1H-pyrrolo[3,2-c]pyridin-3-yl]carbonyl}pyridin-3-yl)-2-[4-(trifluoromethyl)phenyl]acetamide]
8.53 | CC(C)(CO)n1cc(C(=O)c2cncc(NC(=O)Cn3ccc(C(F)(F)F)n3)c2)c2cncc(F)c21 [Example 95, N-(5-{[7-fluoro-1-(1-hydroxy-2-methylpropan-2-yl)-1H-pyrrolo[3,2-c]pyridin-3-yl]carbonyl}pyridin-3-yl)-2-[3-(trifluoromethyl)-1H-pyrazol-1-yl]acetamide]
